Read-outs that look alike come from different tables or passages of the source.
Test system: pig buccal membrane
Assay: Trans-buccal absorption across pig buccal epithelial membrane in side-by-side diffusion cells
Conditions: for Steady-state flux, Fs: pig, 6 h
Experimental: In a side-by-side diffusion experiment, there exists a reservoir on each side of the test biological membrane. […] The steady state flux of absorption, Fs, is calculated by the formula, Fs=(dQ/dt)/A=(dC/dt)×(V/A), wherein Q is the amount of drug permeated, C is the concentration of the drug, A is the permeation area, V is the chamber volume in a side-by-side diffusion cell, and t is the time period over which the drug permeation is monitored. Fs can be determined from the slope of the line attained from plotting the cumulative amount of drug permeated per unit area as a function of time.
Freshly prepared buccal tissue from pigs was used to prepare the buccal epithelial membrane. A dermatometer was used to obtain the buccal epithelial membrane by separating it from the underlying connective tissue. The buccal membranes were used within 3-4 hours of removal of buccal tissue from the pigs.
The buccal epithelial membrane was mounted between side-by-side diffusion cells. The exposed area of the buccal membrane was approximately 0.64 cm^2. […] The final volume of the liquid in the donor-side was 3.5 ml and the volume in the receptor-side was 3.5 ml.
The diffusion system was maintained at 37° C. throughout the experiment. At predetermined intervals over a period of 6 hours, 150 μl of the solution from the receptor-side was withdrawn for HPLC analysis. The receptor-side was refilled with the same volume (150 μl) of KRB solution.
HPLC analysis of the solution withdrawn from the receptor-side was performed using a Waters 2695 separation module HPLC system equipped with a reverse phase C18 column (150 mm×3.9 mm ID, 5 μm) (Waters Corp., Milford, Mass.). The mobile phase was 88% phosphate buffer (0.05 M NH4H2PO4/H3PO4, pH 3.3) and 12% acetonitrile. […] The software used for HPLC assay data analysis was Millenium 32 (Waters Corp., Milford, Mass.).
Microsoft Excel 2000 was used to calculate the steady state flux value of the absorption of the drug across the buccal membrane. The steady state flux (Fs)=(dQ/dt)/A=(dC/dt)×(V/A), wherein Q is the amount of drug permeated, C is concentration of the drug, A is the permeation area, V is the chamber volume, and t is the time period over which the drug permeation is monitored.
The receptor-side contained 3.5 ml of KRB solution.

Row | Molecule | effect of absorption enhancer on permeation of sumatriptan succinate across the buccal membrane | effect of absorption enhancer on permeation of sumatriptan succinate across the buccal membrane (result in words) | further results
1 | C[C@H](CCC(=O)NCC(=O)[O-])[C@H]1CC[C@H]2[C@@H]3[C@H](O)C[C@@H]4C[C@H](O)CC[C@]4(C)[C@H]3C[C@H](O)[C@]12C.[Na+] [sodium glycocholate] | only minor enhancing effects | – | –
2 | CCCCCCCCCC(=O)[O-].[Na+] [sodium caprate] | – | enhanced the permeation | effect of absorption enhancer on permeation of sumatriptan succinate across the buccal membrane (result in words, listed as Sodium caprate): most dramatic effect
3 | lysolecithin | only minor enhancing effects | – | –
4 | CNS(=O)(=O)Cc1ccc2[nH]cc(CCN(C)C)c2c1.O=C(O)CCC(=O)O [Salt (SS) alone, sumatriptan succinate, reference compound] | – | – | Steady-state flux, Fs (12 mM): 6.0 ± 6.6 ng/cm^2/min
5 | CCCCCCCCCCCCOS(=O)(=O)[O-].[Na+] [sodium lauryl sulfate (SLS), sodium lauryl sulfate] | – | enhanced the permeation | –
6 | CCCCCCCCCCCC(=O)[O-].[Na+] [sodium laurate] | – | enhanced the permeation | –
7 | CNS(=O)(=O)Cc1ccc2[nH]cc(CCN(C)C)c2c1 [Base alone, 3-[2-(dimethylamino)ethyl]-N-methyl-indole-5-methanesulphonamide, reference compound] | – | – | effect of absorption enhancers on absorption of sumatriptan base: not significantly enhanced; Steady-state flux, Fs (6.8 mM): 1.6 ± 1.5 ng/cm^2/min
8 | CCCCCCCC(=O)[O-].[Na+] [sodium caprylate] | – | enhanced the permeation | –
9 | CCCCCCCCCCCC(=O)O [lauric acid] | only minor enhancing effects | – | –

From US20060002989A1, “Formulations of sumatriptan for absorption across biological membranes, and methods of making and using the same” (priority 2004, published 2006)
